Experimental data from EP1175907A1, “REMEDIES” (Takara Shuzo Co, Ltd., priority 1999, dated 2000).
“And” between values parts separate entries of the source, which are not always exact repeats. Equal values may be shown once. *1 amine or outer side, *2 acyl side, *3 side chain or, on linkers, in order; H or OH if unused. Where a SMILES comes first, the peptide text is derived from it. Bridges are numbered along the chain shown (N, C = ends). Roman numbers before positions name the chains, in order. [ ]: non-standard residue; d: D form. Actinocin(9to1) = Cc1c2oc3c(C)ccc(C(=O)[*:1])c3nc-2c(C(=O)[*:2])c(N)c1=O; NMeV = CN[C@H](C(=O)O)C(C)C; Sar = CNCC(=O)O

Experiments:
MRC-5 cells [1] = assay: mRNA of HGF in MRC-5 cells (RT-PCR); format: cell-based; settings: 7-12SFd-F 100 µg/ml, LM Heparin 1 µg/ml or PGE1 1 µM; Hours 0 to 24, compared to control
Description: MRC-5 cells (CCL 171: manufactured by DAINIPPON PHARMACEUTICAL CO., LTD., code. 02-021) cultured in a DMEM medium containing 10% fetal bovine serum were suspended in the DMEM medium containing 10% fetal bovine serum so as to have a concentration of 2.5 × 10^5 cells/ml, and added into each well of a 6-well cell culture plate. The cells were cultured at 37°C for 24 hours in the presence of 5% CO2. Thereafter, the medium was exchanged for a DMEM medium containing 1% fetal bovine serum, and the cells were further cultured for 22 hours. Thereafter, the medium was exchanged for each medium added with 7-12SFd-F prepared in item (3) of Reference Example 2 so as to have a final concentration of 100 µg/ml, LM Heparin (manufactured by Celsus Laboratories) so as to have a final concentration of 1 µg/ml, or prostaglandin E1 (PGE1) (manufactured by Wako Pure Chemicals Industries, Ltd.) dissolved in dimethyl sulfoxide (DMSO) so as to have a final concentration of 1 µM. As a medium for control group, the medium added with DMSO was used. Here, the solvent of each additive mentioned above was added so as to have a concentration of 1% in all cases. […] In addition, in order to carry out a semi-quantitative experiment, â-actin, a housekeeping gene, was also detected. […] In all of the samples, mRNA of HGF was detected. […]

MRC-5 cells [2] = assay: synergistic effect on HGF production with PGE1 or IL-1α in MRC-5 cells; format: cell-based, Human; settings: control = 100%
Text: (1) Synergistic effect for the induction action for HGF production of the fucoidan derived from Kjellmaniella crassifolia described in item (1) of Reference Example 1 with prostaglandin or IL-1 was studied in the same manner as that in item (1) of Example 1.
Specifically, the synergistic effect for the induction activity for HGF production was studied by simultaneously adding the fucoidan and PGE1 (manufactured by Wako Pure Chemicals Industries, Ltd.) or IL-1α (manufactured by Genzyme).
The fucoidan sample was added so as to have a final concentration of 1, 10 or 100 µg/ml. PGE1 was added so as to have a concentration of 0.1 or 1 µM, the IL-1α was added so as to have a concentration of 1 ng/ml. As a control, distilled water was added in same volume as that of the sample.
The synergistic effect was studied in comparison to the amount produced of a case where the fucoidan sample or PGE1 or IL-1α was added alone.
In Tables 35 and 36, the amount of HGF produced of the control was regarded as 100%. Each experiment was carried out twice, and an average value was taken. […]
(2) Synergistic effect for the induction action for HGF production of 7-12SFd-F of Reference Example 2 with prostaglandin or IL-1 was studied in the same manner as that in item (1) of Example 2. […]

MRC-5 cells [3] = assay: HGF production in MRC-5 cells with actinomycin D (RNA synthesis inhibitor); format: cell-based, Human; settings: for Amount of HGF Produced (in Medium): control = 100%
Description: (3) Five-hundred microliters of MRC-5 cells (CCL171: manufactured by DAINIPPON PHARMACEUTICAL CO., LTD., code. 02-021) suspended in a DME medium containing 10% fetal bovine serum so as to have a concentration of 1 × 10^5 cells/ml were added into each well of a 48-well cell culture plate. The cells were cultured at 37°C for 24 hours in the presence of 5% CO2, and then the medium was exchanged for a DME medium containing 1% fetal bovine serum. Thereafter, actinomycin D (RNA synthesis inhibitor: manufactured by Sigma) was added thereto so as to have a final concentration of 0, 0.1, or 1 µg/ml, and a sample to be analyzed was further added thereto. The cells were then cultured for 24 hours. This medium was collected, and the amount of HGF in the medium was determined by using Quantikine Human Hepatocyte Growth Factor (HGF) ELISA Kit (manufactured by Funakoshi, Code. RS-0641-00). As to the amount of HGF produced, negative control was regarded as 100%. As to the inhibitory ratio, the inhibitory ratio (%) of the actinomycin D-added fraction was calculated on the basis of the amount of HGF produced when the fucoidan was added alone at each concentration. The fucoidan derived from Kjellmaniella crassifolia described in item (1) of Reference Example 1 was added so as to have a final concentration of 1, 10 or 100 µg/ml. As the negative control, distilled water was added in the same volume as that of the sample. Each experiment was carried out twice, and an average value was taken. […] It was clarified from these findings that RNA synthesis was probably involved in the induction of HGF production by the fucoidan, not simply freeing of HGF from the cells.
(4) Five-hundred microliters of MRC-5 cells (CCL171: manufactured by DAINIPPON PHARMACEUTICAL CO., LTD., code. 02-021) suspended in a DME medium containing 10% fetal bovine serum so as to have a concentration of 1 × 10^5 cells/ml were added into each well of a 48-well cell culture plate. The cells were cultured at 37°C for 24 hours in the presence of 5% CO2, and then the medium was exchanged for a DME medium containing 1% fetal bovine serum. Thereafter, actinomycin D (RNA synthesis inhibitor: manufactured by Sigma) was added thereto so as to have a final concentration of 0, 0.1, or 1 µg/ml, and a sample was further added thereto. The cells were then cultured for 24 hours. This medium was collected, and the amount of HGF in the medium was determined by using Quantikine Human Hepatocyte Growth Factor (HGF) ELISA Kit (manufactured by Funakoshi, Code. RS-0641-00). In addition, the cells were washed with PBS, and thereafter dissolved in 500 µl of a cytolytic buffer (50 mM HEPES, pH 7.4; 10 mM EDTA, 0.1% Triton x 100; 1 mM PMSF; 1 µg/ml pepstatin A and 1 µg/ml, leupeptin). Further, in order to completely dissolve the cells, the mixture was subjected to sonication treatment, and then centrifuged, to give a supernatant (cell extract). The amount of HGF in the cell was determined in the same manner as that of the concentration of HGF in the medium. As to the amount of HGF produced, negative control was regarded as 100%. As to the inhibitory ratio, the inhibitory ratio (%) of the actinomycin D-added fraction was calculated on the basis of the amount of HGF produced when 7-12SFd-F was added alone at each concentration. 7-12SFd-F was added so as to have a final concentration of 1,10 or 100 µg/ml. As the negative control, distilled water was added in the same volume as that of the sample. Each experiment was carried out three times, and an average value was taken. […] It was clarified from these findings that RNA synthesis was probably involved in the induction of HGF production by 7-12SFd-F, not simply freeing of HGF from the cells.

NHDF cells = assay: HGF in medium of NHDF cells with or without minoxidil; format: cell-based, human
Description: The cells were cultured for 24 hours. […] Also, the same steps were carried out for the group added with only the sample without adding minoxidil. The medium was collected, and the amount of HGF in the medium was determined by using Quantikine Human Hepatocyte Growth Factor (HGF) ELISA Kit. […] As a negative control, distilled water was added in the same volume as that of the sample. Each experiment was carried out three times, and an average value was taken.

Q: For CCCCC[C@H](O)/C=C/[C@H]1[C@H](O)CC(=O)[C@@H]1CCCCCCC(=O)O [PGE1, prostaglandin E1], which “induction of mRNA of HGF” value (MRC-5 cells [1]) is on record?
A: The value was “found”.

Q: And the “Amount of HGF Produced” value (MRC-5 cells [2]; PGE1 0.1 µM alone)?
A: Its value is 119% and 123%.

Q: And the “Amount of HGF Produced” value (MRC-5 cells [2]; PGE1 1 µM alone)?
A: The value was 157% and 170%.

Q: Which results are given for Cc1c2oc3c(C)ccc(C(=O)N[C@@H]4C(=O)N[C@H](C(C)C)C(=O)N5CCC[C@H]5C(=O)N(C)CC(=O)N(C)[C@@H](C(C)C)C(=O)O[C@@H]4C)c3nc-2c(C(=O)N[C@@H]2C(=O)N[C@H](C(C)C)C(=O)N3CCC[C@H]3C(=O)N(C)CC(=O)N(C)[C@@H](C(C)C)C(=O)O[C@@H]2C)c(N)c1=O [Actinomycin D, actinomycin D] (I: T[dV]P[Sar][NMeV] / II: T[dV]P[Sar][NMeV]; ester I:1-I:C, II:1-II:C; linker I:N-II:N via Actinocin(9to1))?
A: Amount of HGF Produced (Total in Cells and in Medium) (MRC-5 cells [3]; Actinomycin D 0.1 µg/ml alone): 61%; Inhibitory Ratio Where Actinomycin D Non-Added Group Was Regarded as 100% (Total in Cells and in Medium) (MRC-5 cells [3]; Actinomycin D 0.1 µg/ml alone): 39%; Inhibitory Ratio Where Actinomycin D Non-Added Group Was Regarded as 100% (in Medium) (MRC-5 cells [3]; Actinomycin D 0.1 µg/ml alone): 21% and 24%; Amount of HGF Produced (in Medium) (MRC-5 cells [3]; Actinomycin D 0.1 µg/ml alone): 79% and 76%; Amount of HGF Produced (Total in Cells and in Medium) (MRC-5 cells [3]; Actinomycin D 1 µg/ml alone): 59%; Inhibitory Ratio Where Actinomycin D Non-Added Group Was Regarded as 100% (Total in Cells and in Medium) (MRC-5 cells [3]; Actinomycin D 1 µg/ml alone): 41%; Inhibitory Ratio Where Actinomycin D Non-Added Group Was Regarded as 100% (in Medium) (MRC-5 cells [3]; Actinomycin D 1 µg/ml alone): 17% and 20%; Amount of HGF Produced (in Medium) (MRC-5 cells [3]; Actinomycin D 1 µg/ml alone): 83% and 80%

Q: Which “Concentration of HGF in Medium” value (NHDF cells; Minoxidil 10 µg/ml alone) does the source give for Nc1cc(N2CCCCC2)nc(N)[n+]1[O-] [Minoxidil, minoxidil] here?
A: The value was 126.04 pg/mL.

Q: And the “Concentration of HGF in Medium” value (NHDF cells; Minoxidil 100 µg/ml alone)?
A: The value was 148.83 pg/mL and 137.20 pg/mL.
